Earlier results in patent US11147777B1, “Methods and formulations for efficacious pain relief by transdermal delivery of cannabidiol” (CHARLOTTE'S WEB, INC., priority 2017, dated 2021).

Molecular target: T1, mTRPM8 (Mus musculus, UniProt Q8R4D5)
T1 construct: expressed in transfected cells; host or cells: HEK293
Conditions: normalized to the efficacy of icilin, as disclosed by Behrendt et al.

T1 sequence (Q8R4D5 whole entry): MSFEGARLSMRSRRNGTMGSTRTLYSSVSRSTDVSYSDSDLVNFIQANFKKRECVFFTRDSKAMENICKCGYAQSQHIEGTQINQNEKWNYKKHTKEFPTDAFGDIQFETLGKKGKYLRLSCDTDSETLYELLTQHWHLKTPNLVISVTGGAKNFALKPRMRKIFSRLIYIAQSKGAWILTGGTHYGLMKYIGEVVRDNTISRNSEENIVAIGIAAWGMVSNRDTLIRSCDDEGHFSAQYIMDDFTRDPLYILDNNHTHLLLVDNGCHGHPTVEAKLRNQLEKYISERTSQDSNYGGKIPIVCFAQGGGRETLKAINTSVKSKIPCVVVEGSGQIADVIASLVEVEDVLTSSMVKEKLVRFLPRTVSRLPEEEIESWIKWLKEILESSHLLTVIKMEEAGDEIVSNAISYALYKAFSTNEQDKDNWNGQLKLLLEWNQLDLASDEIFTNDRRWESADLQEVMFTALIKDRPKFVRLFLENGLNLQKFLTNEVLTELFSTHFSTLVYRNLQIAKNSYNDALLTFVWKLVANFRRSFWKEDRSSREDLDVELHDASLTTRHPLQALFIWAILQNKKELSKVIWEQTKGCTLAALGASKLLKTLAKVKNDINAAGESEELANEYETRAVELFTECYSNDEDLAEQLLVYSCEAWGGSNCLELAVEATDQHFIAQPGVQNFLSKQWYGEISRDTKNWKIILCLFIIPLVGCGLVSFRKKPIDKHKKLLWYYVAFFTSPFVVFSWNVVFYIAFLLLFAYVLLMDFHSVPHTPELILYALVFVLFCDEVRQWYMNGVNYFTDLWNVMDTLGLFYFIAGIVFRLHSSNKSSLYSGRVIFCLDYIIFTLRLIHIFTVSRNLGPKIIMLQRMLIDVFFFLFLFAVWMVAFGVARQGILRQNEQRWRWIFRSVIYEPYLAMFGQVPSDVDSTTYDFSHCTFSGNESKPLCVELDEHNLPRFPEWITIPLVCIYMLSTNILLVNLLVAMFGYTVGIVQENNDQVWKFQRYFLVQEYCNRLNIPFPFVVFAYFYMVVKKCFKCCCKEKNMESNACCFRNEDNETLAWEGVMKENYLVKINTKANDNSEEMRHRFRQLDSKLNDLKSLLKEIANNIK

SMILES: CC1CCC(C(C)C)C(O)C1 (stereo not shown) [menthol]
- relative efficacy as TRPM8 agonist on icilin-normalized scale (100 menthol = 70 icilin): 70
